Test results as given in the supplement of paper PMC5908809.

How the values were obtained:
[1] = tested on: normal NK cells expanded with K562-aAPC; test: percent inhibition of viability; higher = more inhibition; details: 72 h, IL-2 2.5 ng/mL
Description: (§1)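 Drug sensitivity and resistance testing on K562-aAPC-expanded normal NK cells: 5 concentrations (10-fold steps over a 10,000-fold range), 72 h at 37 °C, viability by CellTiter-Glo normalised to DMSO and benzethonium chloride controls; DSS from the fitted curve.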

[2] = tested on: DERL-7 (IL-2 2.5 ng/mL); test: as above; details: 72 h
[3] = tested on: IMC-1 (IL-2 20 ng/mL); test: as above; details: 72 h
[4] = tested on: KAI3 (IL-2 2.5 ng/mL); test: as above; details: 72 h
[5] = tested on: KHYG-1 (IL-2 2.5 ng/mL); test: as above; details: 72 h
[6] = tested on: NK-92 (IL-2 2.5 ng/mL); test: as above; details: 72 h
[7] = tested on: NK-YS (IL-2 2.5 ng/mL); test: as above; details: 72 h
[8] = tested on: NKL (IL-2 2.5 ng/mL); test: as above; details: 72 h
[9] = tested on: SNK-6 (IL-2 2.5 ng/mL); test: as above; details: 72 h
[10] = tested on: YT (IL-2 2.5 ng/mL); test: as above; details: 72 h
[11] = tested on: normal primary NK cells, pool 1 (3 donors) (IL-2 2.5 ng/mL); test: as above; details: 72 h
[12] = tested on: normal primary NK cells, pool 1 (3 donors), resting (IL-2 0 ng/mL); test: as above; details: 72 h
[13] = tested on: normal primary NK cells, pool 2 (3 donors) (IL-2 2.5 ng/mL); test: as above; details: 72 h
[14] = tested on: normal primary NK cells, pool 3 (3 donors) (IL-2 2.5 ng/mL); test: as above; details: 72 h
[15] = tested on: normal NK cells expanded with K562-aAPC; test: drug sensitivity score (DSS) (DSS units); higher = more sensitive; extreme values may be limits of the assay; details: 72 h; IL-2 2.5 ng/mL
Description: as §1

[16] = tested on: DERL-7 (IL-2 2.5 ng/mL); test: as above; details: 72 h
[17] = tested on: IMC-1 (IL-2 20 ng/mL); test: as above; details: 72 h
[18] = tested on: KAI3 (IL-2 2.5 ng/mL); test: as above; details: 72 h
[19] = tested on: KHYG-1 (IL-2 2.5 ng/mL); test: as above; details: 72 h
[20] = tested on: NK-92 (IL-2 2.5 ng/mL); test: as above; details: 72 h
[21] = tested on: NK-YS (IL-2 2.5 ng/mL); test: as above; details: 72 h
[22] = tested on: NKL (IL-2 2.5 ng/mL); test: as above; details: 72 h
[23] = tested on: SNK-6 (IL-2 2.5 ng/mL); test: as above; details: 72 h
[24] = tested on: YT (IL-2 2.5 ng/mL); test: as above; details: 72 h
[25] = tested on: normal primary NK cells, pool 1 (3 donors) (IL-2 2.5 ng/mL); test: as above; details: 72 h
[26] = tested on: normal primary NK cells, pool 1 (3 donors), resting (IL-2 0 ng/mL); test: as above; details: 72 h
[27] = tested on: normal primary NK cells, pool 2 (3 donors) (IL-2 2.5 ng/mL); test: as above; details: 72 h
[28] = tested on: normal primary NK cells, pool 3 (3 donors) (IL-2 2.5 ng/mL); test: as above; details: 72 h

CN1CCN(c2ccc3nc(-c4c(N)c5c(F)cccc5[nH]c4=O)[nH]c3c2)CC1 [Dovitinib] (max concentration tested 10000 nM)
percent inhibition of viability ([1]; 1 nM): -2.16%
percent inhibition of viability ([1]; 10 nM): -2.71%
percent inhibition of viability ([1]; 100 nM): 2.91%
percent inhibition of viability ([1]; 1000 nM): -0.42%
percent inhibition of viability ([1]; 10000 nM): 3.96%
percent inhibition of viability ([2]; 1 nM): -0.26%
percent inhibition of viability ([2]; 10 nM): -2.47%
percent inhibition of viability ([2]; 100 nM): -0.75%
percent inhibition of viability ([2]; 1000 nM): 1.93%
percent inhibition of viability ([2]; 10000 nM): 19.1%
percent inhibition of viability ([3]; 1 nM): -9.28%
percent inhibition of viability ([3]; 10 nM): -4.03%
percent inhibition of viability ([3]; 100 nM): -5.76%
percent inhibition of viability ([3]; 1000 nM): -6.55%
percent inhibition of viability ([3]; 10000 nM): -7.61%
percent inhibition of viability ([4]; 1 nM): 2.03%
percent inhibition of viability ([4]; 10 nM): -0.28%
percent inhibition of viability ([4]; 100 nM): 0.82%
percent inhibition of viability ([4]; 1000 nM): 4.98%
percent inhibition of viability ([4]; 10000 nM): 25.2%
percent inhibition of viability ([5]; 1 nM): -5.15%
percent inhibition of viability ([5]; 10 nM): -3.54%
percent inhibition of viability ([5]; 100 nM): 0.13%
percent inhibition of viability ([5]; 1000 nM): 3.06%
percent inhibition of viability ([5]; 10000 nM): 2.7%
percent inhibition of viability ([6]; 1 nM): -5.95%
percent inhibition of viability ([6]; 10 nM): -5.28%
percent inhibition of viability ([6]; 100 nM): -3.15%
percent inhibition of viability ([6]; 1000 nM): -3.74%
percent inhibition of viability ([6]; 10000 nM): 0.3%
percent inhibition of viability ([7]; 1 nM): -1.41%
percent inhibition of viability ([7]; 10 nM): -0.72%
percent inhibition of viability ([7]; 100 nM): 1.54%
percent inhibition of viability ([7]; 1000 nM): 8.71%
percent inhibition of viability ([7]; 10000 nM): 13.5%
percent inhibition of viability ([8]; 1 nM): -10%
percent inhibition of viability ([8]; 10 nM): -6.08%
percent inhibition of viability ([8]; 100 nM): -3.28%
percent inhibition of viability ([8]; 1000 nM): 8.58%
percent inhibition of viability ([8]; 10000 nM): 51.6%
percent inhibition of viability ([9]; 1 nM): -4.17%
percent inhibition of viability ([9]; 10 nM): -5.09%
percent inhibition of viability ([9]; 100 nM): -18.2%
percent inhibition of viability ([9]; 1000 nM): -14%
percent inhibition of viability ([9]; 10000 nM): -35.3%
percent inhibition of viability ([10]; 1 nM): 1.17%
percent inhibition of viability ([10]; 10 nM): 0.22%
percent inhibition of viability ([10]; 100 nM): 2.9%
percent inhibition of viability ([10]; 1000 nM): 5.68%
percent inhibition of viability ([10]; 10000 nM): 1.67%
percent inhibition of viability ([11]; 1 nM): -15.6%
percent inhibition of viability ([11]; 10 nM): -11.3%
percent inhibition of viability ([11]; 100 nM): -2.48%
percent inhibition of viability ([11]; 1000 nM): -5.56%
percent inhibition of viability ([11]; 10000 nM): 9.92%
percent inhibition of viability ([12]; 1 nM): -23.8%
percent inhibition of viability ([12]; 10 nM): -2.86%
percent inhibition of viability ([12]; 100 nM): 19.4%
percent inhibition of viability ([12]; 1000 nM): 10.6%
percent inhibition of viability ([12]; 10000 nM): 53.9%
percent inhibition of viability ([13]; 1 nM): -7.55%
percent inhibition of viability ([13]; 10 nM): -5.64%
percent inhibition of viability ([13]; 100 nM): -7.93%
percent inhibition of viability ([13]; 1000 nM): -6.84%
percent inhibition of viability ([13]; 10000 nM): 19.6%
percent inhibition of viability ([14]; 1 nM): -13.4%
percent inhibition of viability ([14]; 10 nM): -9.6%
percent inhibition of viability ([14]; 100 nM): -2.56%
percent inhibition of viability ([14]; 1000 nM): -3.69%
percent inhibition of viability ([14]; 10000 nM): 18.9%
drug sensitivity score [15]: 0
drug sensitivity score [16]: 0.77
drug sensitivity score [17]: 0
drug sensitivity score [18]: 1.71
drug sensitivity score [19]: 0
drug sensitivity score [20]: 0
drug sensitivity score [21]: 0.43
drug sensitivity score [22]: 4.18
drug sensitivity score [23]: 0
drug sensitivity score [24]: 0
drug sensitivity score [25]: 0
drug sensitivity score [26]: 4.36
drug sensitivity score [27]: 0.35
drug sensitivity score [28]: 0.36

CCCCc1nc2cc(/C=C/C(=O)NO)ccc2n1CCN(CC)CC [Pracinostat] (max concentration tested 10000 nM)
percent inhibition of viability ([1]; 1 nM): 1.37%
percent inhibition of viability ([1]; 10 nM): 8.83%
percent inhibition of viability ([1]; 100 nM): 23.6%
percent inhibition of viability ([1]; 1000 nM): 100%
percent inhibition of viability ([1]; 10000 nM): 101%
percent inhibition of viability ([2]; 1 nM): 1.33%
percent inhibition of viability ([2]; 10 nM): -8.53%
percent inhibition of viability ([2]; 100 nM): 21.4%
percent inhibition of viability ([2]; 1000 nM): 100%
percent inhibition of viability ([2]; 10000 nM): 100%
percent inhibition of viability ([3]; 1 nM): -2.79%
percent inhibition of viability ([3]; 10 nM): 2.79%
percent inhibition of viability ([3]; 100 nM): 10%
percent inhibition of viability ([3]; 1000 nM): 100%
percent inhibition of viability ([3]; 10000 nM): 101%
percent inhibition of viability ([4]; 1 nM): -0.25%
percent inhibition of viability ([4]; 10 nM): 10.9%
percent inhibition of viability ([4]; 100 nM): 59.8%
percent inhibition of viability ([4]; 1000 nM): 100%
percent inhibition of viability ([4]; 10000 nM): 106%
percent inhibition of viability ([5]; 1 nM): 0.14%
percent inhibition of viability ([5]; 10 nM): -0.26%
percent inhibition of viability ([5]; 100 nM): 26.9%
percent inhibition of viability ([5]; 1000 nM): 103%
percent inhibition of viability ([5]; 10000 nM): 107%
percent inhibition of viability ([6]; 1 nM): 0.01%
percent inhibition of viability ([6]; 10 nM): -2.17%
percent inhibition of viability ([6]; 100 nM): 42.9%
percent inhibition of viability ([6]; 1000 nM): 103%
percent inhibition of viability ([6]; 10000 nM): 107%
percent inhibition of viability ([7]; 1 nM): -2.5%
percent inhibition of viability ([7]; 10 nM): 3.97%
percent inhibition of viability ([7]; 100 nM): 26.5%
percent inhibition of viability ([7]; 1000 nM): 93.4%
percent inhibition of viability ([7]; 10000 nM): 106%
percent inhibition of viability ([8]; 1 nM): -9.49%
percent inhibition of viability ([8]; 10 nM): 12.2%
percent inhibition of viability ([8]; 100 nM): 57%
percent inhibition of viability ([8]; 1000 nM): 92.3%
percent inhibition of viability ([8]; 10000 nM): 105%
percent inhibition of viability ([9]; 1 nM): -6.98%
percent inhibition of viability ([9]; 10 nM): 1.26%
percent inhibition of viability ([9]; 100 nM): 17.8%
percent inhibition of viability ([9]; 1000 nM): 96.5%
percent inhibition of viability ([9]; 10000 nM): 100%
percent inhibition of viability ([10]; 1 nM): 2.35%
percent inhibition of viability ([10]; 10 nM): -0.3%
percent inhibition of viability ([10]; 100 nM): 12.7%
percent inhibition of viability ([10]; 1000 nM): 100%
percent inhibition of viability ([10]; 10000 nM): 105%
percent inhibition of viability ([11]; 1 nM): -0.69%
percent inhibition of viability ([11]; 10 nM): -4.78%
percent inhibition of viability ([11]; 100 nM): 22.1%
percent inhibition of viability ([11]; 1000 nM): 96.7%
percent inhibition of viability ([11]; 10000 nM): 97.5%
percent inhibition of viability ([12]; 1 nM): 0.06%
percent inhibition of viability ([12]; 10 nM): -6.1%
percent inhibition of viability ([12]; 100 nM): 49.2%
percent inhibition of viability ([12]; 1000 nM): 86.2%
percent inhibition of viability ([12]; 10000 nM): 90.8%
percent inhibition of viability ([13]; 1 nM): -8.41%
percent inhibition of viability ([13]; 10 nM): -3.58%
percent inhibition of viability ([13]; 100 nM): 22.6%
percent inhibition of viability ([13]; 1000 nM): 94.5%
percent inhibition of viability ([13]; 10000 nM): 94.8%
percent inhibition of viability ([14]; 1 nM): -9.56%
percent inhibition of viability ([14]; 10 nM): -4.29%
percent inhibition of viability ([14]; 100 nM): 13.1%
percent inhibition of viability ([14]; 1000 nM): 97.8%
percent inhibition of viability ([14]; 10000 nM): 98.9%
drug sensitivity score [15]: 21.7
drug sensitivity score [16]: 21.4
drug sensitivity score [17]: 19.6
drug sensitivity score [18]: 25.4
drug sensitivity score [19]: 22.1
drug sensitivity score [20]: 23.6
drug sensitivity score [21]: 20.3
drug sensitivity score [22]: 24.6
drug sensitivity score [23]: 20.1
drug sensitivity score [24]: 20.1
drug sensitivity score [25]: 21.1
drug sensitivity score [26]: 22.5
drug sensitivity score [27]: 20.6
drug sensitivity score [28]: 19.9
